From article PMC10634346 (Cancer Research Communications, 2023)

Assays:
Format in all cases: cell-based, human
[1] = tested on: RNA polymerase II Ser2 phosphorylation (p-Ser2) in SU-DHL-4 cells; test: In vitro washout, p-Ser2 Western blot, SU-DHL-4; settings: 1 µmol/L, 4-hour treatment then washout
Description: (§1) Evaluation of the pharmacodynamic extent and duration of CDK9 inhibition were performed in vitro using the human DLBCL cell lines SU-DHL-4 and SU-DHL-10, harboring MYC amplification and MYC overexpression with P57T mutation, respectively. Cells were seeded 18 hours prior to treatment for 4 hours with one of three CDK9 inhibitors, enitociclib (0.25 and1 µmol/L), atuveciclib (1 µmol/L) or KB-0742 (1 µmol/L), cells were washed, and incubation continued until 48 hours posttreatment. Samples were collected before treatment (−4), immediately after treatment (0), and at 1, 2, 4, 8, 12, 16, 24, and 48 hours after washout for RNA sequencing (RNA-seq), qPCR, and Western blotting analyses.
(§2) The levels of p-Ser2, p-Ser5 and total RNA polymerase II, Myc, Mcl-1, cleaved PARP (cPARP), and cleaved Caspase 3 were assessed by Western blotting and quantified near-infrared detection and background corrected quantification of fluorescence intensity on an Odyssey Imaging System with IRDye secondary antibodies (LI-COR Biosciences). For quantification, the protein levels were normalized to GAPDH or HSP90, expressed as a ratio to DMSO or vehicle control at matched timepoints. The normalized relative protein levels of p-Ser2 were used for a treatment effect comparison by performing an ANOVA using PROC MIXED in SAS. The ANOVA model included treatment, timepoints and their interactions as fixed effects. The least square means (LSM), differences between the LSMs and associated P values were generated. The following primary antibodies were used: Rpb1 NTD (D8L4Y) rabbit antibody [Cell Signaling Technology (CST), #14958], anti-RNA polymerase II subunit B1 (phospho CTD Ser-2, clone 3E10) rat antibody (Merck, 04-1571-I), recombinant anti-c-MYC rabbit antibody (Y69; Abcam, #ab32072), MCL1 (D5V5L) rabbit antibody (CST, #39224), cleaved-PARP (Asp214) (E2T4K) mouse antibody (CST, #32563), HSP90 (C45G5) rabbit antibody (CST, #4877), and GAPDH mouse antibody (Zytomed Systems, #ZYT-RGM2-6C5).

[2] = tested on: MYC mRNA in SU-DHL-10 cells; test: In vitro washout, MYC mRNA qPCR, SU-DHL-10; settings: 1 µmol/L 4 h then washout, maintained for up to 16 hours after treatment
Description: (§3) Evaluation of the pharmacodynamic extent and duration of CDK9 inhibition were performed in vitro using the human DLBCL cell lines SU-DHL-4 and SU-DHL-10, harboring MYC amplification and MYC overexpression with P57T mutation, respectively. Cells were seeded 18 hours prior to treatment for 4 hours with one of three CDK9 inhibitors, enitociclib (0.25 and1 µmol/L), atuveciclib (1 µmol/L) or KB-0742 (1 µmol/L), cells were washed, and incubation continued until 48 hours posttreatment. Samples were collected before treatment (−4), immediately after treatment (0), and at 1, 2, 4, 8, 12, 16, 24, and 48 hours after washout for RNA sequencing (RNA-seq), qPCR, and Western blotting analyses. Total RNA was extracted from blood of patients and cell lines using RNeasy Plus Mini Kit (QIAGEN, #74136) and cDNA prepared with the Maxima First Strand cDNA Synthesis Kit for RT-PCR (Thermo Fisher Scientific, K1642) according to manufacturer's instructions. The integrity of purified total RNA was evaluated using an Agilent 2100 Bioanalyzer system and RNA 6000 Nano Kit (Agilent, #5067-1511). Differential gene expression analysis was performed (Fios Genomics) from RNA-seq data (Discovery Life Sciences). MYC and MCL1 mRNA levels were measured by qPCR in vitro and in vivo, using a Taqman qPCR system (Thermo Fisher Scientific), TaqMan Fast Universal PCR Master Mix (2X) no AmpErase (#4352042) and TaqMan probes for MYC (Hs00153408_m1) and MCL1 (Hs03043899_m1). RNA-seq data were analyzed using DESeq2 ([35]).

[3] = tested on: RNA polymerase II Ser2 phosphorylation (p-Ser2) in SU-DHL-10 cells; test: In vitro washout, p-Ser2 Western blot, SU-DHL-10; settings: 1 µmol/L, 4-hour treatment then washout
Description: as §1, §2

cPARP in SU-DHL-10 cells = test: In vitro washout, cPARP Western blot, SU-DHL-10; settings: 1 µmol/L, 4 h treatment then washout
Description: as §1
(§4) The levels of p-Ser2, p-Ser5 and total RNA polymerase II, Myc, Mcl-1, cleaved PARP (cPARP), and cleaved Caspase 3 were assessed by Western blotting and quantified near-infrared detection and background corrected quantification of fluorescence intensity on an Odyssey Imaging System with IRDye secondary antibodies (LI-COR Biosciences). For quantification, the protein levels were normalized to GAPDH or HSP90, expressed as a ratio to DMSO or vehicle control at matched timepoints. The normalized relative protein levels of p-Ser2 were used for a treatment effect comparison by performing an ANOVA using PROC MIXED in SAS. The ANOVA model included treatment, timepoints and their interactions as fixed effects. […]

[4] = tested on: SU-DHL-4 and SU-DHL-10 cell lines; test: RNA-seq differential gene expression in DLBCL cell lines; settings: for PHF23 and TP53RK by RNA-seq (in words): 1 µmol/L, 4 hours
Description: as §3, with “([35]). RNA-seq data generated from the analysis of two cell lines treated with the three CDK9 inhibitors was analyzed to investigate the differences in gene expression levels between various posttreatment timepoints and the pretreatment samples. Quality control assessment and exploratory data analysis by principal component analysis (PCA) were done on raw counts and on normalized count data. Normalization of RNA-seq count data was done using trimmed mean of M-values normalization and transformed with voom, resulting in log2 counts per million with associated precision weights. […] Significance values (Padj) were adjusted for multiple testing, by controlling the FDR using the Benjamini–Hochberg procedure. […] RNA-seq data generated from blood samples taken from patients before and after their first dose (C1D1) or after multiple doses, before and after their third dose (C1D15) were analyzed and normalized using the same pipeline as cell lines for comparisons.” for “([35]).”

[5] = tested on: MCL1 mRNA in SU-DHL-10 cells; test: In vitro washout, MCL1 mRNA qPCR, SU-DHL-10; settings: 1 µmol/L 4 h then washout, maintained for up to 16 hours after treatment
Description: as §3

[6] = tested on: Myc and Mcl-1 protein in SU-DHL-4 cells; test: In vitro washout, Myc and Mcl-1 protein Western blot, SU-DHL-4; settings: 0.25 µmol/L enitociclib, atuveciclib (1 µmol/L)
Description: as §1, §4

Row | SMILES | decrease of p-Ser2 levels [1] | duration of p-Ser2 decrease [1] | depletion of MYC mRNA levels [2] | p-Ser2 inhibition (in words) [3] | effect on cPARP (in words) (cPARP in SU-DHL-10 cells) | PHF23 and TP53RK by RNA-seq (in words) [4] | MCL1 mRNA by RNA-seq (in words) ([4]; 4 hours treatment, in vitro) | MYC mRNA by RNA-seq (in words) ([4]; 4 hours treatment, in vitro) | depletion of MCL1 mRNA levels [5] | sustained Myc and Mcl-1 protein depletion for 48 hours (in words) [6] | ZPF36 by RNA-seq (in words) ([4]; 4 hours treatment, in vitro)
1 | CCC(CC)c1cc(N[C@H]2CC[C@H](N)C2)n2nccc2n1 [KB-0742] | 50% | up to 12 hours | approximately 50% | only in the presence of the treatment compound and not after washout | no effect | not | upregulated | not statistically significant | approximately 50% |  | 
2 | COc1cc(F)ccc1-c1ncnc(Nc2cccc(C[S@](C)(=N)=O)c2)n1 [atuveciclib, reference compound] | ~50% | up to 16 hours | approximately 50% | only in the presence of the treatment compound and not after washout |  | not | downregulation is observed but not statistically significant | statistically significantly downregulated | approximately 50% | this was achieved | significantly downmodulated
